Test results reported in PMC6152666, “Five New Limonoids from Peels of Satsuma Orange (Citrus reticulata)” (Molecules : A Journal of Synthetic Chemistry and Natural …, 2017).
Entries after “also recorded” stand apart in the source; their conditions may differ.

Tests used:
[1] = Cytotoxicity assay (MTT) in RAW264.7 cells; format: cell-based, mouse; conditions: mouse, RAW264.7 cells, RAW264.7, MTT, 24 h, vehicle control = 100%, mean ± S.E., n=4, read-out: Cell Viability %
Protocol: (§1) RAW264.7 cells were grown in D-MEM medium supplemented with 10% FBS and antibiotics (100 units/mL penicillin G sodium salt and 100 μg/mL streptomycin sulfate). Cells were incubated at 37 °C in a 5% CO2 humidified incubator.
(§2) Cytotoxicity assay was performed according to a method reported previously Briefly, RAW264.7 cells (5 × 10^4 cells in 100 μL) were seeded onto a 96-well microplate and incubated for 24 h. DMEM containing test samples (100 μL total volume, final concentration of 30, 10, 3, or 1 μM) dissolved in DMSO (final concentration 0.2%) was added. After treatment for 24 h, MTT solution was added. After a 3-h incubation, 20% sodium dodecyl sulfate in 0.1 M HCl was added to dissolve the formazan produced in the cells. The absorbance of each well was read at 570 nm using a microplate reader. The optical density of vehicle control cells was assumed to be 100%.

[2] = test system: NO production in RAW264.7 mouse macrophages stimulated by lipopolysaccharide (LPS); test: Inhibitory assay of NO production in LPS-stimulated RAW264.7 macrophages; format: cell-based; conditions: for activity at 1 µM / activity at 3 µM / activity at 10 µM / activity at 30 µM / IC50: Mus musculus; for activity at 1 µM / activity at 3 µM / activity at 10 µM / activity at 30 µM / IC50 / Inhibitory Ratio of NO % (produced NO ratio): RAW264.7 + LPS 5 μg/mL, 24 h; for activity at 1 µM / activity at 3 µM / activity at 10 µM / activity at 30 µM / Inhibitory Ratio of NO % (produced NO ratio): vehicle control = 100%, mean ± S.E., n=4; for activity at 1 µM / activity at 3 µM / activity at 10 µM: read-out: Inhibitory Ratio of NO %; for activity at 30 µM: read-out: Inhibitory Ratio of NO % (produced NO ratio); for activity at 30 µM / Inhibitory Ratio of NO % (produced NO ratio): 30 μM
Description: Macrophages may be a potential therapeutic target for inflammatory diseases. Activated macrophages release pro-inflammatory mediators, such as NO, reactive oxygen species, interleukin-1β, tumor necrosis factor-α, and other inflammatory mediators, which play important roles in biological defense. However, the overexpression of these mediators had been implicated in diseases such as osteoarthritis, rheumatoid arthritis, and diabetes because the increased production of pro-inflammatory mediators induces severe or chronic inflammation. Isolated compounds (1–12), and N^G-monomethyl-L-arginine, acetate (L-NMMA), which is a NO synthase inhibitor and was used as a positive control, were evaluated for macrophage activation by the inhibitory assay of NO production in RAW264.7 mouse macrophages stimulated by lipopolysaccharide (LPS).
as §1
An inhibitory assay of NO production was performed according to a method reported previously with slight modifications. Briefly, RAW264.7 cells (5 × 10^4 cells in 100 μL) were seeded into a 96-well microplate and incubated for 24 h. DMEM containing test samples (100 μL total volume, final concentration of 30, 10, 3, or 1 μM) dissolved in DMSO (final concentration 0.2%), and LPS (final concentration of 5 μg/mL), was added. After treatment for 24 h, the supernatant of culture medium was transferred to another 96-well microplate, and then 50 μL of 0.15% N-(1-naphtyl)ethylenediamine in H2O, and 1.5% sulfanilamide in 7.5% phosphoric acid were added. After incubation for 30 min, the absorbance of each well was read at 570 nm using a microplate reader. The optical density of vehicle control cells was assumed to be 100%.

RAW264.7 cells = test: Cytotoxicity assay (MTT) in RAW264.7 cells; format: cell-based, mouse; conditions: RAW264.7, 1–30 μM
Protocol: as §1, §2

Compound	viability at 24 h, 1 µM [1] [%]	viability at 24 h, 3 µM [1] [%]	viability at 24 h, 10 µM [1] [%]	viability at 24 h, 30 µM [1] [%]	activity at 1 µM [2] [%]	activity at 3 µM [2] [%]	activity at 10 µM [2] [%]	activity at 30 µM [2] [%]	IC50 [2] [µM]	Inhibitory Ratio of NO % (produced NO ratio) [2] [%]	cytotoxicity (in words) (RAW264.7 cells)	inhibitory effect on NO production (in words) ([2]; RAW264.7 + LPS, 1–30 μM)	melting point [°C]
COC1OC(OC)C2(C3OC(=O)C4OC45C3(C)CCC3C46COC(=O)CC4OC(C)(C)C6CC(=O)C35C)OC12 (stereo not drawn) [Compound 9, evolimorutanin]	101	97.7	101	97.6	94.3 ± 4.3	85.2 ± 6.4	91.3 ± 2.8	89.9 ± 3.2	> 30	–	–	–	–
CC(C)(O)[C@@H]1CC(=O)[C@]2(C)[C@H](CC[C@@]3(C)[C@H](c4ccoc4)OC(=O)[C@H]4O[C@]432)[C@]12COC(=O)C[C@@H]2O [Compound 12, ichangin]	101	98.1	98.3	98.3	107 ± 4.1	92.6 ± 3.2	88.4 ± 5.5	73.9	> 30	73.9 ± 3.4	–	–	–
CC1(C)O[C@H]2CC(=O)OC[C@]23[C@H]2CC[C@@]4(C)[C@H](c5ccoc5)OC(=O)[C@H]5O[C@]54[C@]2(C)C(=O)C[C@@H]13 [Compound 6, limonin]	100	95.6	97.2	99.3	102 ± 4.4	93.4 ± 5.7	90.9 ± 3.1	86 ± 5.5	> 30	–	–	–	–
COC(=O)CC(OC(C)=O)C1(C)C(C(C)(C)O)CC(=O)C2(C)C1CCC1(C)C(C3=CC(=O)OC3O)OC(=O)C3OC312 (stereo not drawn) [Compound 3, 21,23-dihydro-21-hydroxy-23-oxonomilinic acid methyl ester]	96.8	94.5	93.2	93.4	99.4 ± 0.8	99.4 ± 2.3	94.1 ± 1.9	80.3	> 30	80.3 ± 1.2	–	–	–
[H]/N=C(/NC)NCCC[C@H](N)C(=O)O [L-NMMA, N^G-monomethyl-L-arginine, acetate, reference compound]	102	102	98.5	109	93.3 ± 2.2	91.4 ± 0.8	68.9 ± 4.5	43.1 ± 1.1	23.9	–	–	–	–
CC1(C)O[C@H]2CC(=O)OC[C@]23[C@H]2CC[C@@]4(C)[C@H](C5=CC(=O)OC5O)OC(=O)[C@H]5O[C@]54[C@]2(C)C(=O)C[C@@H]13 (stereo partly drawn) [Compound 7, shihulimonin A]	102	106	104	100	99.8 ± 1.4	99 ± 3	96.8 ± 2.5	93.9 ± 4	> 30	–	–	–	–
COC1C=C([C@@H]2OC(=O)[C@H]3O[C@@]34[C@@]2(C)CC[C@@H]2[C@@]3(C)[C@@H](OC(C)=O)CC(=O)OC(C)(C)[C@@H]3CC(=O)[C@]24C)C(=O)O1 (stereo partly drawn) [Compound 2, 21,23-dihydro-23-methoxy-21-oxonomilin]	101	98.7	99.1	94.5	95.2 ± 1.6	89.8 ± 2.1	80.4 ± 2.1	39.3 ± 0.5	25.4	–	without cytotoxicity; also recorded: without cytotoxicities	exhibited NO inhibitory activity	208 to 210
CC1(C)OC(=O)C[C@H](O)[C@]2(C)[C@H]3CC[C@@]4(C)[C@H](c5ccoc5)OC(=O)[C@H]5O[C@]54[C@]3(C)C(=O)C[C@@H]12 [Compound 11, deacetylnomilin]	95.9	100	99.3	100	104 ± 3.1	93.2 ± 3.2	84.7 ± 3.2	78.1	> 30	78.1 ± 3.4	–	–	–
CC1(C)O[C@H]2CC(=O)OC[C@]23[C@H]2CC[C@@]4(C)[C@H](C5=CC(O)OC5=O)OC(=O)[C@H]5O[C@]54[C@]2(C)C(=O)C[C@@H]13 (stereo partly drawn) [Compound 8, limonexic acid]	98.1	97.6	92	89.3	97.2 ± 1.1	94.7 ± 2.4	90.9 ± 1.6	76	> 30	76.0 ± 2.2	–	–	–
CC(=O)O[C@H]1CC(=O)OC(C)(C)[C@@H]2CC(=O)[C@]3(C)[C@H](CC[C@@]4(C)[C@H](C5=CC(=O)OC5O)OC(=O)[C@H]5O[C@]543)[C@@]12C (stereo partly drawn) [Compound 1, 21,23-dihydro-21-hydroxy-23-oxonomilin]	99.1	102	104	99.3	110 ± 2.8	111 ± 1.7	105 ± 2.2	107 ± 2.5	> 30	–	–	–	200 to 201
COC1C=C([C@@H]2OC(=O)[C@H]3O[C@@]34[C@@]2(C)CC[C@@H]2[C@@]35COC(=O)C[C@@H]3OC(C)(C)[C@@H]5CC(=O)[C@]24C)C(=O)O1 (stereo partly drawn) [Compound 4, 21,23-dihydro-23-methoxy-21-oxolimonin]	103	97	95.1	91.7	96.2 ± 7.9	94 ± 2.7	101 ± 1.2	95.2 ± 3.4	> 30	–	–	–	–
CC1(C)OC(=O)C=C[C@]2(C)[C@H]3CC[C@@]4(C)[C@H](C5=CC(=O)OC5O)OC(=O)[C@H]5O[C@]54[C@]3(C)C(=O)C[C@@H]12 (stereo partly drawn) [Compound 10, kihadanin A]	105	102	98.9	98.6	95 ± 4.2	96.8 ± 1.3	97.7 ± 2.2	86.6 ± 1.6	> 30	–	–	–	–
CC1(C)O[C@H]2CC(=O)OC[C@]23[C@H]2CC[C@@]4(C)[C@H](C5=CCOC5=O)OC(=O)[C@H]5O[C@]54[C@]2(C)C(=O)C[C@@H]13 [Compound 5, 21,23-Dihydro-21-oxolimonin]	97.9	97.9	99.5	96.6	99.5 ± 5.6	101 ± 4.7	93.8 ± 1.6	83.2	> 30	83.2 ± 5.6	–	–	–
